Laboratory results reported in US8598365B2, “Herbicides” (Syngenta Limited, priority 2007, dated 2013).

Key:
Type in all cases: in vivo
[1] = test system: Echinochloa crus-galli (ECHCG); test: Example B post-emergence herbicidal activity; conditions: 312 h, rate 250 g/ha, evaluated after 13 days, read-out: Post-emergence activity ECHCG (100=total damage to plant; 0=no damage to plant)
Protocol: (§1) Seeds of a variety of test species were sown in standard soil in pots. After cultivation for one day (pre-emergence) or after 8 days cultivation (post-emergence) under controlled conditions in a glasshouse (at 24/16° C., day/night; 14 hours light; 65% humidity), the plants were sprayed with an aqueous spray solution derived from the formulation of the technical active ingredient in acetone/water (50:50) solution containing 0.5% Tween 20 (polyoxyethelyene sorbitan monolaurate, CAS RN 9005-64-5).
(§2) The test plants were then grown in a glasshouse under controlled conditions in a glasshouse (at 24/16° C., day/night; 14 hours light; 65% humidity) and watered twice daily. After 13 days for pre and post-emergence, the test was evaluated (100=total damage to plant; 0=no damage to plant).
(§3) Alopecurus myosuroides (ALOMY), Avena fatua (AVEFA), Setaria faberi (SETFA), Echinochloa crus-galli (ECHCG), Solanum nigrum (SOLNI) and Amaranthus retoflexus (AMARE)

Avena fatua (AVEFA) [2] = test: Example B post-emergence herbicidal activity; conditions: 312 h, rate 250 g/ha, evaluated after 13 days, read-out: Post-emergence activity AVEFA (100=total damage to plant; 0=no damage to plant)
Protocol: as §1, §2, §3

[3] = test system: Alopecurus myosuroides (ALOMY); test: Example B post-emergence herbicidal activity; conditions: 312 h, rate 250 g/ha, evaluated after 13 days, read-out: Post-emergence activity ALOMY (100=total damage to plant; 0=no damage to plant)
Protocol: as §1, §2, §3

[4] = test system: Amaranthus retoflexus (AMARE); test: Example B post-emergence herbicidal activity; conditions: Amaranthus retroflexus, 312 h, rate 250 g/ha, evaluated after 13 days, read-out: Post-emergence activity AMARE (100=total damage to plant; 0=no damage to plant)
Protocol: as §1, §2, §3

Setaria faberi (SETFA) [5] = test: Example B post-emergence herbicidal activity; conditions: 312 h, rate 250 g/ha, evaluated after 13 days, read-out: Post-emergence activity SETFA (100=total damage to plant; 0=no damage to plant)
Protocol: as §1, §2, §3

[6] = test system: Echinochloa crus-galli (ECHCG); test: Example B pre-emergence herbicidal activity; conditions: 312 h, rate 250 g/ha, evaluated after 13 days, read-out: Pre-Emergence Activity ECHCG (100=total damage to plant; 0=no damage to plant)
Protocol: as §1, §2, §3

Avena fatua (AVEFA) [7] = test: Example B pre-emergence herbicidal activity; conditions: 312 h, rate 250 g/ha, evaluated after 13 days, read-out: Pre-Emergence Activity AVEFA (100=total damage to plant; 0=no damage to plant)
Protocol: as §1, §2, §3

[8] = test system: Alopecurus myosuroides (ALOMY); test: Example B pre-emergence herbicidal activity; conditions: 312 h, rate 250 g/ha, evaluated after 13 days, read-out: Pre-Emergence Activity ALOMY (100=total damage to plant; 0=no damage to plant)
Protocol: as §1, §2, §3

[9] = test system: Amaranthus retoflexus (AMARE); test: Example B pre-emergence herbicidal activity; conditions: Amaranthus retroflexus, 312 h, rate 250 g/ha, evaluated after 13 days, read-out: Pre-Emergence Activity AMARE (100=total damage to plant; 0=no damage to plant)
Protocol: as §1, §2, §3

Setaria faberi (SETFA) [10] = test: Example B pre-emergence herbicidal activity; conditions: 312 h, rate 250 g/ha, evaluated after 13 days, read-out: Pre-Emergence Activity SETFA (100=total damage to plant; 0=no damage to plant)
Protocol: as §1, §2, §3

## CC(C)(C)C(=O)OC1=C(c2csc(-c3ccc(Cl)cc3)n2)C(=O)[C@@H]2CC[C@H]1C2 [Compound P22]
[1]
  pest or weed control at 250 g/ha: 20%
Avena fatua (AVEFA) [2]
  pest or weed control at 250 g/ha: 0%
[3]
  pest or weed control at 250 g/ha: 0%
[4]
  pest or weed control at 250 g/ha: 0%
Setaria faberi (SETFA) [5]
  pest or weed control at 250 g/ha: 70%
[6]
  pest or weed control at 250 g/ha: 0%
Avena fatua (AVEFA) [7]
  pest or weed control at 250 g/ha: 0%
[8]
  pest or weed control at 250 g/ha: 0%
[9]
  pest or weed control at 250 g/ha: 0%
Setaria faberi (SETFA) [10]
  pest or weed control at 250 g/ha: 30%

## Cc1sc(-c2ccc(OC(F)F)cc2F)nc1C1C(=O)[C@@H]2CC[C@@H](C2)C1=O (stereo partly drawn) [Compound T92]
[1]
  pest or weed control at 250 g/ha: 100%
Avena fatua (AVEFA) [2]
  pest or weed control at 250 g/ha: 100%
[3]
  pest or weed control at 250 g/ha: 100%
[4]
  pest or weed control at 250 g/ha: 10%
Setaria faberi (SETFA) [5]
  pest or weed control at 250 g/ha: 100%
[6]
  pest or weed control at 250 g/ha: 100%
Avena fatua (AVEFA) [7]
  pest or weed control at 250 g/ha: 90%
[8]
  pest or weed control at 250 g/ha: 70%
[9]
  pest or weed control at 250 g/ha: 0%
Setaria faberi (SETFA) [10]
  pest or weed control at 250 g/ha: 100%

## Cc1cc(Cl)ncc1-c1nc(C2C(=O)[C@@H]3CC[C@@H](C3)C2=O)c(C)s1 (stereo partly drawn) [Compound T75]
[1]
  pest or weed control at 250 g/ha: 70%
Avena fatua (AVEFA) [2]
  pest or weed control at 250 g/ha: 0%
[3]
  pest or weed control at 250 g/ha: 20%
[4]
  pest or weed control at 250 g/ha: 0%
Setaria faberi (SETFA) [5]
  pest or weed control at 250 g/ha: 90%
[6]
  pest or weed control at 250 g/ha: 40%
Avena fatua (AVEFA) [7]
  pest or weed control at 250 g/ha: 20%
[8]
  pest or weed control at 250 g/ha: 0%
[9]
  pest or weed control at 250 g/ha: 0%
Setaria faberi (SETFA) [10]
  pest or weed control at 250 g/ha: 90%

## Cc1sc(-c2ccc(Cl)c(Cl)c2)nc1C1=C(OC(=O)C(C)(C)C)[C@H]2CC[C@H](C2)C1=O [Compound P3]
[1]
  pest or weed control at 250 g/ha: 80%
Avena fatua (AVEFA) [2]
  pest or weed control at 250 g/ha: 0%
[3]
  pest or weed control at 250 g/ha: 60%
[4]
  pest or weed control at 250 g/ha: 0%
Setaria faberi (SETFA) [5]
  pest or weed control at 250 g/ha: 100%
[6]
  pest or weed control at 250 g/ha: 80%
Avena fatua (AVEFA) [7]
  pest or weed control at 250 g/ha: 0%
[8]
  pest or weed control at 250 g/ha: 20%
[9]
  pest or weed control at 250 g/ha: 0%
Setaria faberi (SETFA) [10]
  pest or weed control at 250 g/ha: 100%

## C=Cc1ccc(-c2nc(C3C(=O)[C@@H]4CC[C@@H](C4)C3=O)c(C)s2)cc1 (stereo partly drawn) [Compound T78]
[1]
  pest or weed control at 250 g/ha: 70%
Avena fatua (AVEFA) [2]
  pest or weed control at 250 g/ha: 0%
[3]
  pest or weed control at 250 g/ha: 60%
[4]
  pest or weed control at 250 g/ha: 0%
Setaria faberi (SETFA) [5]
  pest or weed control at 250 g/ha: 80%
[6]
  pest or weed control at 250 g/ha: 0%
Avena fatua (AVEFA) [7]
  pest or weed control at 250 g/ha: 90%
[8]
  pest or weed control at 250 g/ha: 0%
[9]
  pest or weed control at 250 g/ha: 0%
Setaria faberi (SETFA) [10]
  pest or weed control at 250 g/ha: 0%

## CCc1sc(-c2ccc(Cl)cc2Br)nc1C1C(=O)[C@@H]2CC[C@@H](C2)C1=O (stereo partly drawn) [Compound T51]
[1]
  pest or weed control at 250 g/ha: 100%
Avena fatua (AVEFA) [2]
  pest or weed control at 250 g/ha: 100%
[3]
  pest or weed control at 250 g/ha: 100%
[4]
  pest or weed control at 250 g/ha: 0%
Setaria faberi (SETFA) [5]
  pest or weed control at 250 g/ha: 100%
[6]
  pest or weed control at 250 g/ha: 100%
Avena fatua (AVEFA) [7]
  pest or weed control at 250 g/ha: 20%
[8]
  pest or weed control at 250 g/ha: 80%
[9]
  pest or weed control at 250 g/ha: 0%
Setaria faberi (SETFA) [10]
  pest or weed control at 250 g/ha: 100%

## Cc1cc(Br)ccc1-c1nc(C2=C(OC(=O)C3CC3)[C@@H]3CC[C@@H](C3)C2=O)c(C)s1 [Compound P13]
[1]
  pest or weed control at 250 g/ha: 100%
Avena fatua (AVEFA) [2]
  pest or weed control at 250 g/ha: 90%
[3]
  pest or weed control at 250 g/ha: 90%
[4]
  pest or weed control at 250 g/ha: 0%
Setaria faberi (SETFA) [5]
  pest or weed control at 250 g/ha: 100%
[6]
  pest or weed control at 250 g/ha: 50%
Avena fatua (AVEFA) [7]
  pest or weed control at 250 g/ha: 100%
[8]
  pest or weed control at 250 g/ha: 70%
[9]
  pest or weed control at 250 g/ha: 0%
Setaria faberi (SETFA) [10]
  pest or weed control at 250 g/ha: 100%

## Cc1cc(-c2nc(C3C(=O)[C@@H]4CC[C@@H](C4)C3=O)c(C)s2)ccc1Cl (stereo partly drawn) [Compound T4]
[1]
  pest or weed control at 250 g/ha: 100%
[3]
  pest or weed control at 250 g/ha: 60%
[4]
  pest or weed control at 250 g/ha: 0%
Setaria faberi (SETFA) [5]
  pest or weed control at 250 g/ha: 80%
[6]
  pest or weed control at 250 g/ha: 60%
Avena fatua (AVEFA) [7]
  pest or weed control at 250 g/ha: 0%
[8]
  pest or weed control at 250 g/ha: 50%
[9]
  pest or weed control at 250 g/ha: 0%
Setaria faberi (SETFA) [10]
  pest or weed control at 250 g/ha: 30%

## O=C1C(c2cncc(Cl)c2)C(=O)[C@H]2CC[C@@H]1C2 (stereo partly drawn) [Compound T85]
[6]
  pest or weed control at 250 g/ha: 0%
Avena fatua (AVEFA) [7]
  pest or weed control at 250 g/ha: 0%
[8]
  pest or weed control at 250 g/ha: 0%
[9]
  pest or weed control at 250 g/ha: 30%
Setaria faberi (SETFA) [10]
  pest or weed control at 250 g/ha: 0%
